One block for each compound: values may come before it.
How the values were obtained:
THP-1 cells = assay: Inhibitory activity against THP-1 cells; assay type: cell-based; conditions: THP-1 cells (FLT3 wild type AML); data not shown
[1] = Rat microsomal stability (RLM); assay type: in vitro ADME; conditions: Table 10
MLL-AF9 NRas cells = assay: NRAS IC50 (MLL-AF9 NRas cells); assay type: cell-based; conditions: Table 10
MLL-AF9/FLT3-ITD cells = assay type: cell-based; conditions: Homo sapiens, MLL-AF9, Table 10
FLT3 phosphorylation = assay: Immunoblot of phosphorylated FLT3 in MV4;11 cells; assay type: cell-based, human; conditions: 50 nM, 24 hours
IRAK4 phosphorylation = assay: Immunoblot of P-IRAK4 in FLT3-ITD AML cells; assay type: cell-based, human; conditions: 50 nM
IRAK4 = IRAK4 (Homo sapiens (Human), UniProt Q9NWZ3); assay: HotSpot kinase IC50 assay; assay type: biochemical; conditions: 10 μM ATP
IRAK1 = IRAK1 (Homo sapiens (Human), UniProt P51617); assay: HotSpot kinase IC50 assay; assay type: biochemical; conditions: 10 μM ATP

SMILES: Clc1ccc2ncc(-c3cccc(NC4CCNCC4)n3)n2c1 [Compound I-2, 6-(6-chloroimidazo[1,2-a]pyridin-3-yl)-N-(piperidin-4-yl)pyridin-2-amine]
concentration without any inhibitory activity (THP-1 cells): > 10 µM | Stability [1]: >30.0 min

Stability [1]: >30.0 min
SMILES: c1cc(NC2CNC2)nc(-c2cnc3ccccn23)c1 [Compound I-12, N-(azetidin-3-yl)-6-(imidazo[1,2-a]pyridin-3-yl)pyridin-2-amine]

SMILES: Clc1ccc2ncc(-c3cccc(NC4CNC4)n3)n2c1 [Compound I-15, N-(azetidin-3-yl)-6-(6-chloroimidazo[1,2-a]pyridin-3-yl)pyridin-2-amine]
IC50 (MLL-AF9 NRas cells): 16.6 µM | IC50 (MLL-AF9/FLT3-ITD cells): 1.18 µM

SMILES: Clc1ccc2ncc(-c3cccc(NC4CCNC4)n3)n2c1 (centres unmarked) [Compound I-16, 6-(6-chloroimidazo[1,2-a]pyridin-3-yl)-N-(pyrrolidin-3-yl)pyridin-2-amine]
IC50 (MLL-AF9 NRas cells): 1.76 µM

Stability [1]: >30.0 min
SMILES: Clc1ccc2ncc(-c3cccc(NC4CCCNC4)n3)n2c1 (centres unmarked) [Compound I-17, 6-(6-chloroimidazo[1,2-a]pyridin-3-yl)-N-(piperidin-3-yl)pyridin-2-amine]

SMILES: COc1cc2ncc(-c3cccc(NC4CCNC4)n3)n2cc1-c1cn[nH]c1 (centres unmarked) [Compound I-20, 6-(7-methoxy-6-(1H-pyrazol-4-yl)imidazo[1,2-a]pyridin-3-yl)-N-(pyrrolidin-3-yl)pyridin-2-amine]
IC50 (MLL-AF9 NRas cells): 33.2 µM | FLT3 phosphorylation (FLT3 phosphorylation): inhibited FLT3 phosphorylation comparably to AC220 | IC50 (MLL-AF9/FLT3-ITD cells): 0.04 µM | compensatory phosphorylation of IRAK4 (IRAK4 phosphorylation): did not result in compensatory phosphorylation of IRAK4

Stability [1]: 27 min
SMILES: COc1cc2ncc(-c3cccc(NC4CCNC4)n3)n2cc1Cl (centres unmarked) [Compound I-21, 6-(6-chloro-7-methoxyimidazo[1,2-a]pyridin-3-yl)-N-(pyrrolidin-3-yl)pyridin-2-amine]

SMILES: COc1cc2ncc(-c3cccc(NC4CCNC4)n3)n2cc1-c1ccncc1 (centres unmarked) [Compound I-23, 6-(7-methoxy-6-(pyridin-4-yl)imidazo[1,2-a]pyridin-3-yl)-N-(pyrrolidin-3-yl)pyridin-2-amine]
IC50 (MLL-AF9 NRas cells): 1.83 µM | Stability [1]: >30.0 min

SMILES: COc1cc2ncc(-c3cccc(NC4CCNC4)n3)n2cc1-c1c(C)n[nH]c1C (centres unmarked) [Compound I-25, 6-(6-(3,5-dimethyl-1H-pyrazol-4-yl)-7-methoxyimidazo[1,2-a]pyridin-3-yl)-N-(pyrrolidin-3-yl)pyridin-2-amine]
IC50 (MLL-AF9 NRas cells): 15.7 µM | Stability [1]: >30.0 min

SMILES: COc1cc2ncc(-c3cccc(NC4CCNC4)n3)n2cc1-c1cnn(CCN2CCOCC2)c1 (centres unmarked) [Compound I-26]
IC50 (MLL-AF9 NRas cells): 15.7 µM | IC50 (MLL-AF9/FLT3-ITD cells): 0.02 µM | Stability [1]: >30.0 min

SMILES: COc1cc2ncc(-c3cccc(NC4CCNC4)n3)n2cc1-c1cc[nH]c1 (centres unmarked) [Compound I-27, 6-(7-methoxy-6-(1H-pyrrol-3-yl)imidazo[1,2-a]pyridin-3-yl)-N-(pyrrolidin-3-yl)pyridin-2-amine]
IC50 (MLL-AF9 NRas cells): 4.43 µM | Stability [1]: >30.0 min

SMILES: COc1cc2ncc(-c3cccc(NC4CCNC4)n3)n2cc1-c1c(C)noc1C (centres unmarked) [Compound I-28, 6-(6-(3,5-dimethylisoxazol-4-yl)-7-methoxyimidazo[1,2-a]pyridin-3-yl)-N-(pyrrolidin-3-yl)pyridin-2-amine]
IC50 (MLL-AF9 NRas cells): 14.8 µM

SMILES: COc1cc2ncc(-c3cccc(NC4CCCNC4)n3)n2cc1-c1cn[nH]c1 (centres unmarked) [Compound I-29, 6-(7-methoxy-6-(1H-pyrazol-4-yl)imidazo[1,2-a]pyridin-3-yl)-N-(piperidin-3-yl)pyridin-2-amine]
IC50 (MLL-AF9 NRas cells): 9.35 µM | Stability [1]: 9.8 min

SMILES: COc1cc2ncc(-c3cccc(N(C)C4CCNC4)n3)n2cc1-c1cn[nH]c1 (centres unmarked) [Compound I-31, 6-(7-methoxy-6-(1H-pyrazol-4-yl)imidazo[1,2-a]pyridin-3-yl)-N-methyl-N-(pyrrolidin-3-yl)pyridin-2-amine]
IC50 (MLL-AF9 NRas cells): 16.6 µM

SMILES: COc1cc2ncc(-c3cccc(OC4CCNC4)n3)n2cc1-c1cn[nH]c1 (centres unmarked) [Compound I-32, 7-methoxy-6-(1H-pyrazol-4-yl)-3-(6-(pyrrolidin-3-yloxy)pyridin-2-yl)imidazo[1,2-a]pyri-dine]
IC50 (MLL-AF9 NRas cells): 3.72 µM | Stability [1]: 7.7 min

SMILES: COc1cc2ncc(-c3nc(NC4CCNC4)c(F)cc3F)n2cc1-c1cn[nH]c1 (centres unmarked) [Compound I-33, 3,5-difluoro-6-(7-methoxy-6-(1H-pyrazol-4-yl)imidazo[1,2-a]pyridin-3-yl)-N-(pyrrolidin-3-yl)pyridin-2-amine]
IC50 (MLL-AF9 NRas cells): 29.8 µM | Stability [1]: 9.3 min

SMILES: COc1cc2ncc(-c3cccc(NC4CCNC4)n3)n2cc1OC (centres unmarked) [Compound I-36]
IC50 (MLL-AF9 NRas cells): 4.43 µM | IC50 (MLL-AF9/FLT3-ITD cells): 0.017 µM | Stability [1]: >30.0 min

SMILES: COc1cc(-c2cn[nH]c2)cn2c(-c3cccc(NC4CCNC4)n3)cnc12 (centres unmarked) [Compound I-37]
IC50 (MLL-AF9 NRas cells): 16.6 µM | IC50 (MLL-AF9/FLT3-ITD cells): 2.22 µM | Stability [1]: 2.3 min

SMILES: COc1cc2ncc(-c3cccc(NC4CCNC4)n3)n2cc1-c1nnn[nH]1 (centres unmarked) [Compound I-38]
IC50 (MLL-AF9 NRas cells): 0.002 µM | IC50 (MLL-AF9/FLT3-ITD cells): 6.25 µM | Stability [1]: >30.0 min

SMILES: COc1cc2ncc(-c3cccc(NC4CCNC4)n3)n2cc1C#N (centres unmarked) [Compound I-39]
IC50 (MLL-AF9 NRas cells): 5.58 µM | IC50 (MLL-AF9/FLT3-ITD cells): 0.033 µM | Stability [1]: 8.8 min

SMILES: Clc1cn2c(-c3cccc(NC4CCNC4)n3)cnc2cc1OCCN1CCOCC1 (centres unmarked) [Compound I-40]
IC50 (MLL-AF9 NRas cells): 0.626 µM | IC50 (MLL-AF9/FLT3-ITD cells): 0.008 µM | Stability [1]: >30.0 min

SMILES: c1cc(NC2CCNC2)nc(-c2cnc3cc(OCCN4CCOCC4)c(-c4cn[nH]c4)cn23)c1 (centres unmarked) [Compound I-41, 6-(7-(2-morpholinoethoxy)-6-(1H-pyrazol-4-yl)imidazo[1,2-a]pyridin-3-yl)-N-(pyrrolidin-3-yl)pyridin-2-amine]
IC50 (MLL-AF9 NRas cells): 17.6 µM | Stability [1]: >30.0 min

SMILES: COc1cc(Cl)cn2c(-c3cccc(NC4CNC4)n3)cnc12 [Compound I-42, N-(azetidin-3-yl)-6-(6-chloro-8-methoxyimidazo[1,2-a]pyridin-3-yl)pyridin-2-amine]
IC50 (MLL-AF9 NRas cells): 20.9 µM

SMILES: c1cc(N[C@@H]2CCNC2)nc(-c2cnc3ccc(-c4cn[nH]c4)cn23)c1 [Compound I-43]
IC50 (MLL-AF9/FLT3-ITD cells): 0.076 µM

SMILES: c1cc(N[C@H]2CCNC2)nc(-c2cnc3ccc(-c4cn[nH]c4)cn23)c1 [Compound I-44]
IC50 (MLL-AF9/FLT3-ITD cells): 0.017 µM

SMILES: c1cc(NC2CNC2)nc(-c2cnc3ccc(-c4cn[nH]c4)cn23)c1 [Compound I-45]
IC50 (MLL-AF9 NRas cells): 4.29 µM | IC50 (MLL-AF9/FLT3-ITD cells): 0.46 µM

SMILES: Cn1cc(-c2ccc3ncc(-c4cccc(NC5CNC5)n4)n3c2)cn1 [Compound I-46]
IC50 (MLL-AF9 NRas cells): 16.6 µM | IC50 (MLL-AF9/FLT3-ITD cells): 0.213 µM | Stability [1]: >30.0 min

SMILES: Fc1cc(F)c(-c2cnc3ccc(Cl)cn23)nc1NC1CNC1 [Compound I-47]
IC50 (MLL-AF9 NRas cells): 1.88 µM | Stability [1]: >30.0 min

SMILES: Cc1ccc(-c2cnc3ccc(Cl)cn23)nc1NC1CNC1 [Compound I-48]
IC50 (MLL-AF9/FLT3-ITD cells): 2.79 µM

SMILES: Cc1ccc(NC2CNC2)nc1-c1cnc2ccc(Cl)cn12 [Compound I-49]
IC50 (MLL-AF9/FLT3-ITD cells): 0.892 µM

Stability [1]: >30.0 min
SMILES: COc1ccn2c(-c3cccc(NC4CNC4)n3)cnc2c1 [Compound I-50, N-(azetidin-3-yl)-6-(7-methoxyimidazo[1,2-a]pyridin-3-yl)pyridin-2-amine]

SMILES: CN(c1cccc(-c2cnc3ccc(Cl)cn23)n1)C1CCNCC1 [Compound I-51]
IC50 (MLL-AF9/FLT3-ITD cells): 0.028 µM

SMILES: Brc1ccc2ncc(-c3cccc(NC4CNC4)n3)n2c1 [Compound I-52]
IC50 (MLL-AF9/FLT3-ITD cells): 0.085 µM

SMILES: Clc1ccc2ncc(-c3cc(Br)cc(NC4CNC4)n3)n2c1 [Compound I-53]
IC50 (MLL-AF9/FLT3-ITD cells): 4.96 µM | Stability [1]: >30.0 min

SMILES: c1cc(NC2CCNC2)nc(-c2cnc3ccc(-c4cn[nH]c4)cn23)c1 (centres unmarked) [Compound I-54, 6-(6-(1H-pyrazol-4-yl)imidazo[1,2-a]pyridin-3-yl)-N-(pyrrolidin-3-yl)pyridin-2-amine]
IC50 (MLL-AF9/FLT3-ITD cells): 0.107 µM

SMILES: CC(=O)N1CC(Nc2cccc(-c3cnc4ccc(Cl)cn34)n2)C1 [Compound I-57]
IC50 (MLL-AF9/FLT3-ITD cells): 0.399 µM | Stability [1]: >30.0 min

SMILES: O=C(c1ccccc1)N1CC(Nc2cccc(-c3cnc4ccc(Cl)cn34)n2)C1 [Compound I-58]
IC50 (MLL-AF9/FLT3-ITD cells): 0.709 µM | Stability [1]: 8.0 min

SMILES: N#CCC(=O)N1CC(Nc2cccc(-c3cnc4ccc(Cl)cn34)n2)C1 [Compound I-59]
IC50 (MLL-AF9/FLT3-ITD cells): 0.205 µM | Stability [1]: >30.0 min

Stability [1]: >30.0 min
SMILES: Cc1ccn2c(-c3cccc(NC4CNC4)n3)cnc2c1 [Compound I-61, N-(azetidin-3-yl)-6-(7-methylimidazo[1,2-a]pyridin-3-yl)pyridin-2-amine]

SMILES: Clc1cc2ncc(-c3cccc(NC4CNC4)n3)n2cc1Cl [Compound I-62]
IC50 (MLL-AF9/FLT3-ITD cells): 0.154 µM | Stability [1]: >30.0 min

SMILES: CCN1CCN(c2ccc3ncc(-c4cccc(NC5CNC5)n4)n3c2)CC1 [Compound I-64]
IC50 (MLL-AF9/FLT3-ITD cells): 2 µM

Stability [1]: >30.0 min
SMILES: COc1cc(NC2CNC2)nc(-c2cnc3ccc(Cl)cn23)c1 [Compound I-67, N-(azetidin-3-yl)-6-(6-chloroimidazo[1,2-a]pyridin-3-yl)-4-methoxypyridin-2-amine]

SMILES: CC(C)(C)c1cc(NC(=O)Nc2ccc(-c3cn4c(n3)sc3cc(OCCN5CCOCC5)ccc34)cc2)no1 [quizartinib]
IC50 (IRAK4): inactive | IC50 (IRAK1): inactive

— patent US11542261B2, “Substituted Imidazo[1,2-a]-pyridines as IRAK 1/4 and FLT3 inhibitors” (CHILDREN'S HOSPITAL MEDICAL CENTER, priority 2016, dated 2023)
